Results published in EP0487930B1, “Benzo[C]phenanthridinium derivatives” (NIPPON KAYAKU KABUSHIKI KAISHA, priority 1990, dated 1992).
Counter-ions that a name gives are not always drawn. Like-named read-outs stand apart in the source and are kept apart here.

Experiments:
[1] = system: HeLa S3; test: Growth inhibition activity against tumor cells (Methylene Blue staining); assay type: cell-based; conditions: Homo sapiens
Description: (§1) Various tumor cells were cultured at 37°C for 24 hours in 5% gaseous carbon dioxide, and then subjected to an action of a test drug for 2-4 days. After that, the cells were stained with 0.05% Methylene Blue. The pigment were extracted from the stained cells. The growth inhibition rate of the cells was determined based on absorbance of the extracted pigment at 660 nm, and the 50% growth inhibitory concentration (IC50) was calculated.
(§2) In this table, the abbreviated expressions have the following tumor cells: HeLa S3 = carcinoma colli; MMI = ovarian cancer; SHIN-3 = ovarian cancer; N-231 = small cell lung cancer; Lu-130 = small cell lung cancer; Nakajima = gastric cancer; and the expression "n.t." represents "not tested". These tests were conducted according to a simultaneous comparison test method, except the case of HeLa S3.

[2] = system: Lu-130; test: as above; assay type: cell-based
Description: as §1, §2

[3] = system: MMI; test: as above; assay type: cell-based
Description: as §1, §2

[4] = system: N-231; test: as above; assay type: cell-based
Description: as §1, §2

[5] = system: Nakajima; test: as above; assay type: cell-based; conditions: Nakajima = gastric cancer; test drug for 2-4 days
Description: as §1, §2

[6] = system: SHIN-3; test: as above; assay type: cell-based
Description: as §1, §2

[7] = system: platelet aggregation caused by platelet activation factor (PAF) in platelet-rich plasma (PRP); test: Inhibition activity on platelet aggregation (serotonin release, anti-PAF activity); assay type: cell-based, Japanese albino rabbits; conditions: Oryctolagus cuniculus, PAF 10^-7 M, serotonin release inhibition rate; for inhibition at 25 µg/mL: Concentration 25 µg/ml; for inhibition at 50 µg/mL: Concentration 50 µg/ml; for inhibition at 100 µg/mL: Concentration 100 µg/ml
Description: Platelet-rich plasma (PRP) was collected from Japanese albino rabbits (weighing 3-4 kg). As a platelet aggregation inducer, platelet activation factor (PAF) was used in a final concentration of 10^-7 M. A test drug was added to PRP. After incubation for a definite period of time, PAF was added to cause a platelet aggregation reaction. The reaction was terminated with EDTA. After a centrifugation, the supernatant was removed to obtain platelet precipitates. Distilled water was added to the platelet precipitates, whereby the serotonin remained in the platelet was reacted with an orthophthalaldehyde reagent to form a serotonin-orthophthaladehyde condensate. The condensate was measured at an excited wavelength of 360 nm and at a measurement wavelength of 475 nm. Anti-PAF activity of the test drug was determined by the following equation. Serotonin release inhibition rate (%) =((Test drug + PAF) value - PAF value)/(Blank value - PAF value)x 100 [formula] In the equation, the expression "value" stands for "serotonin value".

[8] = Storage stability of the powder at room temperature; assay type: physicochemical; conditions: stored at room temperature for a long period of time
Excerpt: This compound is a powdery material having a yellowish color immediately after the production thereof. It gradually changes its color into brown. […] This is because a decomposition product, which is difficultly soluble in water, has been formed during the storage of the compound. So, it is not considered that the compound has properties suitable for formulating into a phamaceutical preparation.
2,3-(methylenedioxy)-5-methyl-7-hydroxy-8-ethoxy-benzo[c]phenanthridinium hydrogen sulfate (compound A-0), wherein the acid residue X^- is a hydrogen sulfate ion HSO4^-, is a compound according to the invention, and can be obtained as yellow powder. […] A 0.5 µM aqueous solution of 2,3-(methylenedioxy)-5-ethyl-7-hydroxy-8-methoxy-benzo[c]phenanthridinium chloride, wherein the acid residue X^- is a chloride ion Cl^-, has a pH of 4.3. On the other hand, a 0.5 µM aqueous solution of 2,3-(methylenedioxy)-5-methyl-7-hydroxy-8-methoxy-benzo[c]phenanthridinium hydrogen sulfate according to the invention, wherein the acid residue X^- is a hydrogen sulfate ion HSO4^-, has a pH of 3.9. […] There are no disadvantages in the pharmaceutical activities of such compounds when they have the form of hydrogen salts such as hydrogen sulfate salts. Therefore, the hydrogen salt compounds are practically useful as medicines in view of the enhanced stability thereof.

[9] = Lu-130 = small cell lung cancer, test drug for 2-4 days, read-out: IC50
[10] = MMI = ovarian cancer, test drug for 2-4 days, read-out: IC50
[11] = N-231 = small cell lung cancer, test drug for 2-4 days, read-out: IC50
[12] = SHIN-3 = ovarian cancer, test drug for 2-4 days, read-out: IC50

Compound	IC50 [2, 9]	IC50 [3, 10]	IC50 [4, 11]	IC50 [5]	IC50 [6, 12]	inhibition at 25 µg/mL [7]	inhibition at 50 µg/mL [7]	inhibition at 100 µg/mL [7]	IC50 ([1]; HeLa S3)	IC50 [2]	IC50 [3]	IC50 [4]	IC50 [6]	further results
CC[n+]1cc2c(O)c(OC)ccc2c2ccc3cc4c(cc3c21)OCO4 [Compound A-1, 2,3-(methylenedioxy)-5-ethyl-7-hydroxy-8-methoxy-benzo[c]phenanthridinium hydrogen sulfate salt]	0.25 µg/mL	0.165 µg/mL	0.04 µg/mL	0.426 µg/mL	0.17 µg/mL	49.6%	74.1%	96.5%						IC50 ([1]; HeLa S3 = carcinoma colli, test drug for 2-4 days, not part of the simultaneous comparison test, read-out: IC50): 0.177 µg/mL; inhibition at 12.5 µg/mL ([7]; Concentration 12.5 µg/ml): 25.2%
CCC[n+]1cc2c(O)c(OC)ccc2c2ccc3cc4c(cc3c21)OCO4 [Compound A-2, 2,3-(methylenedioxy)-5-(n-propyl)-7-hydroxy-8-methoxy-benzo[c]phenanthridinium hydrogen sulfate salt]	0.108 µg/mL	0.273 µg/mL	0.085 µg/mL	0.777 µg/mL	0.414 µg/mL									
COc1ccc2c(c[n+](C)c3c4ccccc4ccc23)c1O.O=S(=O)([O-])O [Compound A-4, 5-methyl-7-hydroxy-8-methoxy-benzo[c]phenanthridinium hydrogen sulfate salt]						10.9%	26.5%	46.4%	0.26 µg/mL	0.051 µg/mL	0.262 µg/mL	0.062 µg/mL	0.155 µg/mL	
COc1ccc2c(c[n+](C)c3c4cc5c(cc4ccc23)OCO5)c1O [2,3-(methylenedioxy)-5-methyl-7-hydroxy-8-methoxy-benzo[c]phenanthridinium chloride]														stability on storage [8]: gradually decomposed
COc1ccc2c(c[n+](C)c3c4cc5c(cc4ccc23)OCO5)c1O [Compound A-0, 2,3-(methylenedioxy)-5-methyl-7-hydroxy-8-methoxy-benzo[c]phenanthridinium hydrogen sulfate salt]									0.15 µg/mL	0.055 µg/mL	0.12 µg/mL	0.036 µg/mL	0.192 µg/mL	
CC[n+]1cc2c(O)c(OC)ccc2c2ccc3ccccc3c21.O=S(=O)([O-])O [Compound A-3, 5-ethyl-7-hydroxy-8-methoxy-benzo[c]phenanthridinium hydrogen sulfate salt]									0.69 µg/mL					
